Assay results: patent publication US20250213474A1, “COMPOSITIONS AND METHODS FOR METAL CONTAINING FORMULATIONS CAPABLE OF MODULATING IMMUNE RESPONSE” (The Regents of the University of Michigan, priority 2021, published 2025)

Experiments:
[1] = Safety of CMP-14:0 PA in VX2 tumor bearing rabbits (body weight, AST, ALT); format: in vivo, New Zealand White rabbits; conditions: 1.5 mg IV on W0 and W1
Protocol: FIGS. 31A-31C: CMP-14:0 PA is safe in rabbits. (FIG. 31A) VX2 tumor tissues were cut into pieces and implanted within the muscle of the both hindlimbs on W-3.5. […] (FIG. 31B) Serum was collected on W2 for measurement of AST and ALT levels as indicators of liver function. (FIG. 31C) Body weight changes in VX2 tumor bearing rabbits were monitored over the two cycles of treatment.
New Zealand White rabbits were used for this study. All rabbits were housed individually in cages under constant 21° C. temperature and 12-h light/dark cycles. All animals were cared for following federal, state, and local guidelines. All animal experimental procedures performed were in accordance with and approved by the Institutional Animal Care & Use Committee (IACUC) at the University of Michigan, Ann Arbor and complied with the National Institutes of Health (NIH) Guidelines for the care and use of laboratory animals. For establishing VX2 squamous cell carcinoma in rabbits, 4 mm^3 fresh tumor tissues were cut into small pieces and resuspended in 1 mL PBS for intramuscular injections within the hindlimbs. Both hindlimbs were implanted with the tumor tissue suspension. […] In the antitumor efficacy study, two doses of CMP-14:0 PA and diABZi were given with one week interval and the rabbits were euthanized 1 week after the last dose for primary tumors and lung metastasis analysis. […]

[2] = tested on: VX2 squamous cell carcinoma; assay: Rabbit VX2 squamous cell carcinoma model; format: in vivo, New Zealand White rabbits; conditions: IV on W0 and W1; CMP-14:0 PA 0.5 mg, diABZi 1.5 mg; versus non-treated rabbits
Protocol: FIGS. 32A-E: CMP-14:0 PA exerts robust efficacy in rabbit VX2 squamous cell carcinoma model. (FIG. 32A) VX2 tumor tissues were cut into pieces and implanted within the muscle of the both hindlimbs on W-3.5. Rabbits were treated IV with 0.5 mg CMP-14:0 PA or 1.5 mg diABZi on W0 and W1. Shown are (FIG. 32B) total weight of primary tumors dissected from the muscle of the hindlimbs. (FIG. 32C) total volume of the primary tumor dissected from the muscle of the hindlimbs. (FIG. 32D) Measured tumor area ratio based on H&E staining slides of lung sections. (FIG. 32E) Representative images of the lungs.
New Zealand White rabbits were used for this study. All rabbits were housed individually in cages under constant 21° C. temperature and 12-h light/dark cycles. All animals were cared for following federal, state, and local guidelines. All animal experimental procedures performed were in accordance with and approved by the Institutional Animal Care & Use Committee (IACUC) at the University of Michigan, Ann Arbor and complied with the National Institutes of Health (NIH) Guidelines for the care and use of laboratory animals. For establishing VX2 squamous cell carcinoma in rabbits, 4 mm^3 fresh tumor tissues were cut into small pieces and resuspended in 1 mL PBS for intramuscular injections within the hindlimbs. Both hindlimbs were implanted with the tumor tissue suspension. […]

[3] = tested on: B16F10 cells; assay: B16F10 tumor model, CMP versus other STING-activating formulations; format: in vivo, C57BL/6 mice
Protocol: FIGS. 23A-P: Robust therapeutic effect of CMPCDA in multiple tumor models. (FIGS. 23A-23J) Therapeutic effect of CMPCDA was compared with other CDA formulations and other STING agonists in an established B16F10 tumor model. (FIGS. 23A-23E) Tumor-bearing C57BL/6 mice were treated with CMPCDA, CDA-Zn particle (CZPCDA), CDA liposome), ADU-S100, or diABZI (all 5 μg doses of STING agonists, I.T.) on the indicated time points (FIG. 23A). Shown are (FIG. 23B) the individual tumor growth, (FIG. 23C) representative photos of tumors, (FIG. 23D) average tumor growth and (FIG. 23E) survival. […] Data were analyzed by two-way ANOVA (FIG. 23D, FIG. 23I, FIG. 23P) with Bonferroni multiple comparisons post-test. Survival of (FIG. 23E, FIG. 23J, FIG. 23P) was analyzed by Kaplan-Meier survival analysis with log-rank (Mantel-Cox) test. *p and #p in (FIG. 23P) denote statistical significance relative to the untreated and CDA groups, respectively.
All animals were cared for following federal, state, and local guidelines. […] Tumor size and survival were monitored every 2-4 days. Tumor size was calculated based on equation: volume=length×width^2×0.5. […] At indicated time points, the cytokine levels in serum were measured by ELISA assay in the Cancer Center Immunology Core of the University of Michigan. The amount of tumor antigen-specific T cells among PBMC were analyzed using the IFN-γ ELISPOT assay. […]

diABZI
rabbits with elevated level of AST and ALT [1]: 1 out of 3
weight and volume of primary tumors in the hindlimbs [2]: did not decrease the weight or volume of primary tumors
anti-tumor effect after I.T. therapy ([3]; 5 μg doses of STING agonists, I.T.): comparable anti-tumor responses
anti-tumor effect after I.V. therapy ([3]; 20 μg doses, I.V.): only minor anti-tumor effects
